Source: patent US5486597A, “Tetrapeptide derivatives and analogues” (James Black Foundation Limited, priority 1990, dated 1996)
Non-standard residues stand in square brackets, D forms with d. Residues, ends and D or L forms follow the SMILES beside them. *: point of attachment. 2Nal = N[C@@H](Cc1ccc2ccccc2c1)C(=O)O; Phe(ol) = N[C@H](CO)Cc1ccccc1; Boc = CC(C)(C)OC(=O)*; For = O=C*

Columns and labels:
[1] = biological target: T1, cholecystokinin receptors (Cavia porcellus, UniProt Q63931); assay: CCK-antagonist activity in isolated guinea-pig gall-bladder strip preparations; format: cell-based; details: guinea-pig gall-bladder strips; CCK-8 as agonist; test compound incubated for 60 minutes; standard errors less than 5%
T1 construct: Isolated, strip preparations were prepared from gall-bladders removed from male Dunkin-Hartley guinea-pigs; from tissue; host or cells: guinea-pig gall-bladder strips
T1 sequence (Q63931 1-430): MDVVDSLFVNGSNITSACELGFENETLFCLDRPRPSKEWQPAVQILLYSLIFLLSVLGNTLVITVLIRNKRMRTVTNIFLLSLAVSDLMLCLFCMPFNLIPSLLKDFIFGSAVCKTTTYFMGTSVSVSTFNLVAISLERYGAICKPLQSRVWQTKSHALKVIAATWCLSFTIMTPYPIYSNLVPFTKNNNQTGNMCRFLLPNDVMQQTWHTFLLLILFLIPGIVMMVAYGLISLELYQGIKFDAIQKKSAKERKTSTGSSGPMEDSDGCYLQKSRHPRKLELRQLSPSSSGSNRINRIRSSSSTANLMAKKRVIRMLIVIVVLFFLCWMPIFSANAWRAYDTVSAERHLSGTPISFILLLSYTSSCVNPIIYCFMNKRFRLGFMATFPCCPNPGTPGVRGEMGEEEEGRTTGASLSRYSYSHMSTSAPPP
Procedure: The compounds of the invention were also assayed for CCK-antagonist activity as follows:
Isolated, strip preparations were prepared from gall-bladders removed from male Dunkin-Hartley guinea-pigs (250-500 g body weight) according to the method of La Morte, W. W., et al., J.P.E.T., 217, (3), 638-644 (1981).
The complete gall-bladder is removed and opened along the longitudinal axis. Strips measuring 3 mm in the longitudinal axis and 1 mm in the transverse axis are cut and then tied with cotton to stainless steel wires. The preparation is connected to a GRASS FTO3 isometric transducer under an initial loading tension of 1 g and is immersed in 20 mls of Krebs solution maintained at 37° C. and gassed with 95% O2 /5% CO2. The Krebs solution is as detailed above in connection with the fundus assay, except that the Ca^2+ concentration is decreased to 0.5 mM. After 30 mins the preparation is washed. Drug addition begins after an initial 90 min stabilisation period. Responses are measured as changes in tension from that immediately prior to any drug addition. Single cumulative agonist concentration-effect curves, using CCK-8 as agonist, are obtained on each preparation in the absence and presence of test compound which has been incubated for 60 minutes. The antagonist activity of the test compound is estimated and expressed as the negative logarithm (base 10) of the equilibrium dissociation constants (pK8) using the modifications of standard competitive analysis described by Black et al., Br. J. Pharmacol.,86,571-579, (1985) and Shankley et al., Br. J. Pharmacol.,94,264-274 (1988).

gastrin receptor = biological target: T2, gastrin receptor (Cavia porcellus, UniProt H0VZC5); assay: guinea-pig fundus assay for gastrin activity (stomach muscle strips); format: cell-based; details: 10^-8 M devazepide present, 60 minute equilibration, agonist e.g. pentagastrin, standard errors less than 5%
T2 construct: Strips of muscle (approximately 2.5 cm by 1 cm) are removed from the proximal area of the stomach; from tissue; host or cells: guinea-pig proximal stomach (fundus) muscle strips
T2 sequence (H0VZC5 1-426): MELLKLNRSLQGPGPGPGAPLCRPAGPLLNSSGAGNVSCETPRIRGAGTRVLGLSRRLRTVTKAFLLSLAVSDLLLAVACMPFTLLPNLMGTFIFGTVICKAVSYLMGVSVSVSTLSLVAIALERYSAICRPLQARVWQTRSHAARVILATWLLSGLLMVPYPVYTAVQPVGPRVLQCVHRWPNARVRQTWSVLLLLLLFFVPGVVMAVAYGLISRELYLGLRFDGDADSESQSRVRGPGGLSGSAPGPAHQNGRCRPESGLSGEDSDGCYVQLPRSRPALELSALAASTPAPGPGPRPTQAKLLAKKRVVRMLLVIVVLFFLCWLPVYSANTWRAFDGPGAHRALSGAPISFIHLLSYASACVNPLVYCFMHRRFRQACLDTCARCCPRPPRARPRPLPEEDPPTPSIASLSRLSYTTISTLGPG
Procedure: The compounds were assayed for gastrin activity using the mouse stomach assay as described by Black, J. W. and Shankley, N. P., Br. J. Pharmacol., 86, 571-579, (1985), and also in the guinea-pig fundus assay, as follows:
The stomach is removed from a male Dunkin-Hartley guinea-pig (250-500 g), and Krebs solution is injected through a hypodermic needle under the top stomach muscle layer. The composition (mM) of the Krebs solution is as follows: Na^+ 143, K^+ 5.9, Ca^2+ 2.5, Mg^2+ 1.2, Cl^- 128, H2 PO4^- 2.2, HCO3^- 24.9, SO4^2- 1.2, dextrose 10. Strips of muscle (approximately 2.5 cm by 1 cm) are removed from the proximal area of the stomach (one from each side) and tied with cotton thread to isotonic transducers under an initial loading tension of 0.35 g.
The preparation is immersed in 20 mls of Krebs solution containing 10^-8 M devazepide (25 μl 2×10^-3 M devazepide/100% DMF solution in 5 dm^3 Krebs) and gassed with 95% O2 /5% CO2. The function of the devazepide is to block possible effects at CCK receptors present in the tissue.
The preparation is washed twice over a 60 minute period then 10 mM KCl is added. At 90 minutes, test compounds (ie. potential antagonists) are added and a further 60 minute equilibration period allowed. After this time, cumulative agonist (e.g. pentagastrin) dose-response curves are constructed.

Molecule | pKB [1] | pKB (gastrin receptor) | Kb [1] [µM] | Kb (gastrin receptor) [µM]
CC(C)(C)OC(=O)N[C@@H](Cc1c[nH]c2ccccc12)C(=O)N[C@@H](Cc1ccc2ccccc2c1)C(=O)N[C@@H](CC(=O)O)C(=O)N[C@@H]1CCC[C@H]1c1ccccc1 (single isomer, unassigned; diastereomer 2) [Example 32, N-t-Butyloxycarbonyl-L-tryptophyl-L-3-(2-naphthyl)alanyl-L-aspartyl-trans-2-phenylcyclopentylamide (diastereomer 2)] | 6.6 | 6.1 | – | –
CC(C)(C)OC(=O)N[C@@H](Cc1c[nH]c2ccccc12)C(=O)N[C@@H](Cc1ccc2ccccc2c1)C(=O)N[C@@H](CC(=O)O)C(=O)N[C@H](CO)Cc1ccccc1 [Example 9, N-t-Butyloxycarbonyl-L-tryptophyl-L-3-(2-naphthyl)alanyl-L-aspartyl-L-phenylalaninol] (Boc-W[2Nal]D[Phe(ol)]) | – | – | 1.26 | 2.51
CC(C)(C)OC(=O)N[C@@H](Cc1c[nH]c2ccccc12)C(=O)N[C@@H](Cc1ccc2ccccc2c1)C(=O)N[C@H](CC(=O)O)C(=O)N[C@@H](Cc1ccccc1)C(N)=O [Example 12, N-t-Butyloxycarbonyl-L-tryptophyl-L-3-(2-naphthyl)alanyl-D-aspartyl-L-phenylalaninamide] (Boc-W[2Nal][dD]F-NH2) | – | – | 0.0398 | 3.16
NC(=O)[C@H](Cc1ccccc1)NC(=O)[C@H](CC(=O)O)NC(=O)[C@H](Cc1ccc2ccccc2c1)NC(=O)[C@H](Cc1c[nH]c2ccccc12)NC=O [Example 15, N-Formyl-L-tryptophyl-L-3-(2-naphthyl)alanyl-L-aspartyl-L-phenylalaninamide] (For-W[2Nal]DF-NH2) | – | – | 0.631 | 5.01
CC(C)(C)OC(=O)N[C@@H](Cc1c[nH]c2ccccc12)C(=O)N[C@@H](Cc1ccc2ccccc2c1)C(=O)N[C@@H](CC(=O)O)C(=O)N1CCc2ccccc2C1 [Example 26, N-[N-t-Butyloxycarbonyl-L-tryptophyl-L-3-(2-naphthyl)alanyl-L-aspartyl]-1,2,3,4-tetrahydroisoquinolinamide] | 6.6 | 5.5 | – | –
CCCCOC(=O)N[C@@H](Cc1c[nH]c2ccccc12)C(=O)N[C@@H](Cc1ccc2ccccc2c1)C(=O)N[C@@H](CC(=O)O)C(=O)NCCc1ccccc1C(F)(F)F [Example 27, N-Butyloxycarbonyl-L-tryptophyl-L-3-(2-naphthyl)alanyl-L-aspartyl-2-trifluoromethylphenethylamide] | 6.5 | 5.8 | – | –
CC(C)(C)OC(=O)N[C@@H](Cc1c[nH]c2ccccc12)C(=O)N[C@@H](Cc1ccc2ccccc2c1)C(=O)N[C@@H](CC(=O)O)C(=O)NCCc1ccc([N+](=O)[O-])cc1 [Example 30, N-t-Butyloxycarbonyl-L-tryptophyl-L-3-(2-naphthyl)alanyl-L-aspartyl-4-nitrophenethylamide] | 6.6 | 5.7 | – | –
Cc1cccc(CCNC(=O)[C@H](CC(=O)O)NC(=O)[C@H](Cc2ccc3ccccc3c2)NC(=O)[C@H](Cc2c[nH]c3ccccc23)NC(=O)OC(C)(C)C)c1 [Example 39, N-t-Butyloxycarbonyl-L-tryptophyl-L-3-(2-naphthyl)alanyl-L-aspartyl-3-methylphenethylamide] | 6.7 | 5.4 | – | –
COc1ccc(CCNC(=O)[C@H](CCC(=O)O)NC(=O)[C@H](Cc2ccc3ccccc3c2)NC(=O)[C@H](Cc2c[nH]c3ccccc23)NC(=O)OC(C)(C)C)cc1 [Example 61, N-t-Butyloxycarbonyl-L-tryptophyl-L-3-(2-naphthyl)alanyl-L-glutamyl-4-methoxyphenethylamide] | 6.5 | 5.7 | – | –
N-t-Butyloxycarbonyl-L-tryptophyl-L-3-(2-naphthyl)alanyl-L-aspartyl-1-indanylamide [Example 25] | 6.3 | 5.7 | – | –
N-t-Butyloxycarbonyl-L-tryptophyl-L-3-(2-naphthyl)alanyl-L-aspartyl-3,4-dimethoxyphenethylamide [Example 41] | 6.5 | 6.0 | – | –
N-t-Butyloxycarbonyl-L-tryptophyl-L-3-(2-naphthyl)alanyl-L-aspartyl-4-hydroxyphenethylamide [Example 38] | 7.1 | 5.9 | – | –
N-t-Butyloxycarbonyl-L-tryptophyl-L-3-(2-naphthyl)alanyl-L-aspartyl-L-3-cyclohexylalaninamide [Example 36] | 6.3 | 5.4 | – | –

Second part, the molecule after the results:

pKB [1] | pKB (gastrin receptor) | Kb [1] [µM] | Kb (gastrin receptor) [µM] | Molecule
6.2 | 6.0 | – | – | CC(C)(C)OC(=O)N[C@@H](Cc1c[nH]c2ccccc12)C(=O)N[C@@H](Cc1ccc2ccccc2c1)C(=O)N[C@@H](CC(=O)O)C(=O)NCCc1ccncc1 [Example 44, N-t-Butyloxycarbonyl-L-tryptophyl-L-3-(2-naphthyl)alanyl-L-aspartyl-2-(4-pyridyl)ethylamide]
6.6 | 5.7 | – | – | COc1cc2c(cc1OC)CN(C(=O)C(CC(=O)O)NC(=O)C(Cc1ccc3ccccc3c1)NC(=O)C(Cc1c[nH]c3ccccc13)NC(=O)OC(C)(C)C)CC2 [Example 48, N-t-Butyloxycarbonyl-L-tryptophyl-L-3-(2-naphthyl)alanyl-L-aspartyl-2-N-(6,7-dimethoxy-1,2,3,4-tetrahydro)isoquinolinamide]
6.8 | 6.2 | – | – | CC(C)(C)OC(=O)N[C@@H](Cc1c[nH]c2ccccc12)C(=O)N[C@@H](Cc1ccc2ccccc2c1)C(=O)N[C@@H](CC(=O)O)C(=O)NCCc1ccc(S(N)(=O)=O)cc1 [Example 49, N-t-Butyloxycarbonyl-L-tryptophyl-L-3-(2-naphthyl)alanyl-L-aspartyl-4-sulphonamidophenethylamide]
7.0 | 5.7 | – | – | COc1ccc(CNC(=O)[C@H](CC(=O)O)NC(=O)[C@H](Cc2ccc3ccccc3c2)NC(=O)[C@H](Cc2c[nH]c3ccccc23)NC(=O)OC(C)(C)C)cc1 [Example 51]
6.0 | 5.6 | – | – | CC(C)(C)OC(=O)N[C@@H](Cc1c[nH]c2ccccc12)C(=O)N[C@@](C)(Cc1ccc2ccccc2c1)C(=O)N[C@@H](CC(=O)O)C(=O)N[C@@H](Cc1ccccc1)C(N)=O [Example 57, N-t-Butyloxycarbonyl-L-tryptophyl-L-2-methyl-3-(2-naphthyl)alanyl-L-aspartyl-L-phenylalaninamide]
7.0 | 5.9 | – | – | CC(C)(C)CCNC(=O)[C@H](CC(=O)O)NC(=O)[C@H](Cc1ccc2ccccc2c1)NC(=O)[C@H](Cc1c[nH]c2ccccc12)NC(=O)OC(C)(C)C [Example 64, N-t-Butyloxycarbonyl-L-tryptophyl-L-3-(2-naphthyl)alanyl-L-aspartyl-3,3-dimethylbutylamide]
